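Protocol summary: plate cells (96-well), add compound at 5 concentrations, incubate 48 h, interpolate endpoints linearly. At the GI50, growth is halved. The concentration for full growth arrest is given as TGI.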
Assays:
Assay in all cases: NCI anticancer screen, dose series, 48 h
OVCAR-8 ovarian = tested on: OVCAR-8 ovarian
OVCAR-3 ovarian = tested on: OVCAR-3 ovarian
NCI-H23 lung = tested on: NCI-H23 lung
HCT-15 colon = tested on: HCT-15 colon
NCI-H460 lung = tested on: NCI-H460 lung
M19-MEL melanoma = tested on: M19-MEL melanoma
SF-539 CNS = tested on: SF-539 CNS
SNB-75 CNS = tested on: SNB-75 CNS
SK-MEL-5 melanoma = tested on: SK-MEL-5 melanoma
A498 renal = tested on: A498 renal
SK-MEL-28 melanoma = tested on: SK-MEL-28 melanoma
HOP-92 NSCLC = tested on: HOP-92 NSCLC

Structure (SMILES)	TGI (OVCAR-8 ovarian)	TGI (OVCAR-3 ovarian)	TGI (NCI-H23 lung)	TGI (HCT-15 colon)	TGI (NCI-H460 lung)	TGI (M19-MEL melanoma)	TGI (SF-539 CNS)	TGI (SNB-75 CNS)	TGI (SK-MEL-5 melanoma)	TGI (A498 renal)	TGI (SK-MEL-28 melanoma)	TGI (HOP-92 NSCLC)	GI50 (OVCAR-8 ovarian)	GI50 (OVCAR-3 ovarian)	GI50 (NCI-H23 lung)	GI50 (HCT-15 colon)	GI50 (NCI-H460 lung)	GI50 (SK-MEL-28 melanoma)	GI50 (HOP-92 NSCLC)
O=C(O)C(Cc1cccs1)NC(=O)C(F)(F)F (stereo not given)	> 100 µM	> 100 µM	> 100 µM	> 100 µM	> 100 µM	> 100 µM	> 100 µM	> 100 µM	> 100 µM	> 100 µM	> 100 µM	> 100 µM	–	–	–	–	–	–	–
CC(N)Cc1cccc(C(F)(F)F)c1 (stereo not given)	> 100 µM	> 100 µM	> 100 µM	> 100 µM	> 100 µM	> 100 µM	> 100 µM	> 100 µM	> 100 µM	> 100 µM	> 100 µM	> 100 µM	–	–	–	–	–	–	–
COC(=O)c1cccc(NC(=O)Nc2ccc3oc(=O)c4ccccc4c3c2)c1	> 100 µM	> 100 µM	> 100 µM	> 100 µM	> 100 µM	–	–	–	–	–	> 100 µM	> 100 µM	> 100 µM	> 100 µM	> 100 µM	> 100 µM	> 100 µM	> 100 µM	> 100 µM
CN(C)CCOc1cc2c(c3ccccc13)-c1ccccc1C2=O	3.23 µM	4.99 µM	5.24 µM	4.19 µM	2.34 µM	2.89 µM	3.27 µM	4.64 µM	2.96 µM	19.3 µM	3.27 µM	4.25 µM	–	–	–	–	–	–	–
CCSC(=Nc1ccccc1)SC	> 100 µM	> 100 µM	> 100 µM	> 100 µM	> 100 µM	> 100 µM	> 100 µM	> 100 µM	> 100 µM	–	> 100 µM	> 100 µM	–	–	–	–	–	–	–
CCCCOC(=O)CN1C(=O)c2ccccc2C1=O	> 100 µM	> 100 µM	> 100 µM	> 100 µM	> 100 µM	> 100 µM	> 100 µM	> 100 µM	> 100 µM	–	> 100 µM	> 100 µM	–	–	–	–	–	–	–
C#CCCCC(=C)C[C@H](OCc1ccccc1)[C@H]1OC(=O)[C@@H]1C	> 100 µM	> 100 µM	> 100 µM	> 100 µM	> 100 µM	–	68.5 µM	> 100 µM	–	> 100 µM	> 100 µM	> 100 µM	–	–	–	–	–	–	–
O=C(CCl)N1CCCCC1C1(c2cc3ccccc3[nH]2)OCCO1 (stereo not given)	17.6 µM	5.34 µM	8.47 µM	33.9 µM	> 34.5 µM	–	4.51 µM	7.3 µM	22.6 µM	11.8 µM	35.6 µM	24.7 µM	–	–	–	–	–	–	–
COc1cc(CC2CCc3nc(N)nc(N)c3C2)cc(OC)c1OC (stereo not given)	> 100 µM	> 100 µM	> 72.5 µM	> 100 µM	> 91.5 µM	–	> 60.4 µM	> 48.8 µM	16.6 µM	> 87.8 µM	> 100 µM	> 100 µM	–	–	–	–	–	–	–
CO/C(=N/N1CC1C(F)(F)F)c1ccncc1 (stereo not given)	> 100 µM	> 100 µM	> 100 µM	> 100 µM	> 100 µM	–	–	> 100 µM	> 100 µM	> 100 µM	> 100 µM	> 100 µM	–	–	–	–	–	–	–
NC(=O)/N=C(\N)NC(=O)c1ccccc1	> 100 µM	> 100 µM	> 100 µM	> 100 µM	> 100 µM	–	–	–	> 100 µM	> 100 µM	> 100 µM	> 100 µM	–	–	–	–	–	–	–
N#CN=Nc1cc(Cl)c(N=NC#N)cc1Cl	> 100 µM	> 100 µM	> 100 µM	> 100 µM	> 100 µM	> 100 µM	> 100 µM	> 100 µM	> 100 µM	> 100 µM	> 100 µM	> 100 µM	–	–	–	–	–	–	–
